Data as given in ChEMBL document CHEMBL3885881, “DrugMatrix”.

What was measured:
Rattus norvegicus [1] = organism: Rattus norvegicus; test: DrugMatrix - Regimen: Daily Repeat; type: toxicity, organism-based, Sprague-Dawley; set-up: regimen Daily Repeat, gender Male, age 6-8 weeks; settings: in vivo, po, […], route oral GAVAGE, time 14 day, vehicle 100 % WATER
Rattus norvegicus [2] = organism: Rattus norvegicus; type: toxicity, organism-based, Sprague-Dawley; settings: in vivo, po, 24 h, route oral GAVAGE, time 1 day, vehicle 100 % WATER
Description: DrugMatrix - Regimen: Single

[3] = 0 mg/kg, tissue Blood, dose level Control
[4] = 0 mg/kg, tissue Plasma, dose level Control
[5] = tissue Blood, dose 2.5 mg/Kg, dose level High
[6] = tissue Plasma, dose 2.5 mg/Kg, dose level High
[7] = 0 mg/kg, vehicle control, tissue Blood, dose level Control
[8] = 0 mg/kg, vehicle control, tissue Plasma, dose level Control
[9] = […], tissue Blood, dose 2.5 mg/Kg, dose level High
[10] = […], tissue Plasma, dose 2.5 mg/Kg, dose level High

MERCURIC CHLORIDE
ABSOLUTE BASOPHIL (Rattus norvegicus [1]; [3]): 0 CELLS/uL | ABSOLUTE EOSINOPHIL (Rattus norvegicus [1]; [3]): 117.17 CELLS/uL | ABSOLUTE MONOCYTE (Rattus norvegicus [1]; [3]): 419 CELLS/uL | ABSOLUTE SEGMENTED NEUTROPHIL (Rattus norvegicus [1]; [3]): 2139.67 CELLS/uL | BASOPHIL (Rattus norvegicus [1]; [3]): 0% | EOSINOPHIL (Rattus norvegicus [1]; [3]): 0.67% | ERYTHROCYTE COUNT (Rattus norvegicus [1]; [3]): 6.61 x10E6/uL | HEMATOCRIT (Rattus norvegicus [1]; [3]): 37.58% | HEMOGLOBIN (Rattus norvegicus [1]; [3]): 13.8 G/DL | LEUKOCYTE COUNT (Rattus norvegicus [1]; [3]): 15.45 x10E3/uL | LYMPHOCYTE (Rattus norvegicus [1]; [3]): 83% | MEAN CORPUSCULAR HEMOGLOBIN (Rattus norvegicus [1]; [3]): 20.87 pg | MEAN CORPUSCULAR HEMOGLOBIN CONCENTRATION (Rattus norvegicus [1]; [3]): 36.72 G/DL | MEAN CORPUSCULAR VOLUME (Rattus norvegicus [1]; [3]): 56.85 fL | MONOCYTE (Rattus norvegicus [1]; [3]): 2.67% | NEUTROPHIL (Rattus norvegicus [1]; [3]): 13.67% | NUCLEATED RED BLOOD CELLS (Rattus norvegicus [1]; [3]): 0 /100WBC | PLATELET COUNT (Rattus norvegicus [1]; [3]): 1108.33 x10E3/uL | ALANINE AMINOTRANSFERASE (Rattus norvegicus [1]; [4]): 56.83 u/L | ALKALINE PHOSPHATASE (Rattus norvegicus [1]; [4]): 354.33 u/L | ASPARTATE AMINOTRANSFERASE (Rattus norvegicus [1]; [4]): 93.33 u/L | BLOOD UREA NITROGEN (Rattus norvegicus [1]; [4]): 16.67 mg/dL | CARBON DIOXIDE (Rattus norvegicus [1]; [4]): 27.83 mmol/L | CHOLESTEROL (Rattus norvegicus [1]; [4]): 62.33 mg/dL | CREATININE (Rattus norvegicus [1]; [4]): 0.2 mg/dL | GLUCOSE (Rattus norvegicus [1]; [4]): 137 mg/dL | LACTATE DEHYDROGENASE (Rattus norvegicus [1]; [4]): 407 u/L | LIPASE (Rattus norvegicus [1]; [4]): 10.83 u/L | PHOSPHORUS (Rattus norvegicus [1]; [4]): 11.45 mg/dL | POTASSIUM (Rattus norvegicus [1]; [4]): 6.51 MEQ/L | SODIUM (Rattus norvegicus [1]; [4]): 145.57 MEQ/L | TOTAL BILIRUBIN (Rattus norvegicus [1]; [4]): 0.2 mg/dL | TOTAL PROTEIN (Rattus norvegicus [1]; [4]): 6.3 G/DL | ABSOLUTE BASOPHIL (Rattus norvegicus [1]; [5]): 0 CELLS/uL | ABSOLUTE EOSINOPHIL (Rattus norvegicus [1]; [5]): 269 CELLS/uL | ABSOLUTE LYMPHOCYTE (Rattus norvegicus [1]; [5]): 14982 CELLS/uL | ABSOLUTE MONOCYTE (Rattus norvegicus [1]; [5]): 560.2 CELLS/uL | ABSOLUTE SEGMENTED NEUTROPHIL (Rattus norvegicus [1]; [5]): 2068.8 CELLS/uL | BASOPHIL (Rattus norvegicus [1]; [5]): 0% | EOSINOPHIL (Rattus norvegicus [1]; [5]): 1.6% | ERYTHROCYTE COUNT (Rattus norvegicus [1]; [5]): 6.64 x10E6/uL | HEMATOCRIT (Rattus norvegicus [1]; [5]): 37.88% | LEUKOCYTE COUNT (Rattus norvegicus [1]; [5]): 17.88 x10E3/uL | LYMPHOCYTE (Rattus norvegicus [1]; [5]): 83.6% | MEAN CORPUSCULAR HEMOGLOBIN (Rattus norvegicus [1]; [5]): 20.94 pg | MEAN CORPUSCULAR HEMOGLOBIN CONCENTRATION (Rattus norvegicus [1]; [5]): 36.7 G/DL | MEAN CORPUSCULAR VOLUME (Rattus norvegicus [1]; [5]): 57.06 fL | MONOCYTE (Rattus norvegicus [1]; [5]): 3.2% | NEUTROPHIL (Rattus norvegicus [1]; [5]): 11.6% | NUCLEATED RED BLOOD CELLS (Rattus norvegicus [1]; [5]): 0 /100WBC | PLATELET COUNT (Rattus norvegicus [1]; [5]): 1034.6 x10E3/uL | ALANINE AMINOTRANSFERASE (Rattus norvegicus [1]; [6]): 59.6 u/L | ALKALINE PHOSPHATASE (Rattus norvegicus [1]; [6]): 375 u/L | ASPARTATE AMINOTRANSFERASE (Rattus norvegicus [1]; [6]): 95.2 u/L | BLOOD UREA NITROGEN (Rattus norvegicus [1]; [6]): 17 mg/dL | CARBON DIOXIDE (Rattus norvegicus [1]; [6]): 23.4 mmol/L | CHOLESTEROL (Rattus norvegicus [1]; [6]): 68 mg/dL | CREATININE (Rattus norvegicus [1]; [6]): 0.22 mg/dL | GLUCOSE (Rattus norvegicus [1]; [6]): 151.4 mg/dL | LACTATE DEHYDROGENASE (Rattus norvegicus [1]; [6]): 417.8 u/L | LIPASE (Rattus norvegicus [1]; [6]): 10.2 u/L | PHOSPHORUS (Rattus norvegicus [1]; [6]): 11.36 mg/dL | POTASSIUM (Rattus norvegicus [1]; [6]): 6.37 MEQ/L | SODIUM (Rattus norvegicus [1]; [6]): 147.12 MEQ/L | TOTAL BILIRUBIN (Rattus norvegicus [1]; [6]): 0.18 mg/dL | TOTAL PROTEIN (Rattus norvegicus [1]; [6]): 6.74 G/DL | URIC ACID (Rattus norvegicus [1]; [6]): 2.42 mg/dL | ABSOLUTE EOSINOPHIL (Rattus norvegicus [2]; [7]): 91.83 CELLS/uL | ABSOLUTE LYMPHOCYTE (Rattus norvegicus [2]; [7]): 13862.33 CELLS/uL | ABSOLUTE MONOCYTE (Rattus norvegicus [2]; [7]): 437.83 CELLS/uL | ABSOLUTE SEGMENTED NEUTROPHIL (Rattus norvegicus [2]; [7]): 1358 CELLS/uL | BASOPHIL (Rattus norvegicus [2]; [7]): 0% | EOSINOPHIL (Rattus norvegicus [2]; [7]): 0.5% | ERYTHROCYTE COUNT (Rattus norvegicus [2]; [7]): 5.12 x10E6/uL | HEMATOCRIT (Rattus norvegicus [2]; [7]): 31.77% | HEMOGLOBIN (Rattus norvegicus [2]; [7]): 11.8 G/DL | LEUKOCYTE COUNT (Rattus norvegicus [2]; [7]): 15.75 x10E3/uL | MEAN CORPUSCULAR HEMOGLOBIN (Rattus norvegicus [2]; [7]): 23.07 pg | MEAN CORPUSCULAR HEMOGLOBIN CONCENTRATION (Rattus norvegicus [2]; [7]): 37.17 G/DL | MONOCYTE (Rattus norvegicus [2]; [7]): 2.67% | NEUTROPHIL (Rattus norvegicus [2]; [7]): 8.5% | NUCLEATED RED BLOOD CELLS (Rattus norvegicus [2]; [7]): 0 /100WBC | PLATELET COUNT (Rattus norvegicus [2]; [7]): 1113.83 x10E3/uL | ALANINE AMINOTRANSFERASE (Rattus norvegicus [2]; [8]): 45.5 u/L | ALKALINE PHOSPHATASE (Rattus norvegicus [2]; [8]): 343.83 u/L | ASPARTATE AMINOTRANSFERASE (Rattus norvegicus [2]; [8]): 70.67 u/L | BLOOD UREA NITROGEN (Rattus norvegicus [2]; [8]): 13 mg/dL | CARBON DIOXIDE (Rattus norvegicus [2]; [8]): 33 mmol/L | CHLORIDE (Rattus norvegicus [2]; [8]): 100.33 MEQ/L | CHOLESTEROL (Rattus norvegicus [2]; [8]): 76.67 mg/dL | CREATININE (Rattus norvegicus [2]; [8]): 0.12 mg/dL | LACTATE DEHYDROGENASE (Rattus norvegicus [2]; [8]): 116.67 u/L | LIPASE (Rattus norvegicus [2]; [8]): 8 u/L | POTASSIUM (Rattus norvegicus [2]; [8]): 6.33 MEQ/L | TOTAL BILIRUBIN (Rattus norvegicus [2]; [8]): 0.18 mg/dL | TOTAL PROTEIN (Rattus norvegicus [2]; [8]): 5.77 G/DL | ABSOLUTE EOSINOPHIL (Rattus norvegicus [2]; [9]): 210.67 CELLS/uL | ABSOLUTE LYMPHOCYTE (Rattus norvegicus [2]; [9]): 10744.33 CELLS/uL | ABSOLUTE MONOCYTE (Rattus norvegicus [2]; [9]): 466.33 CELLS/uL | ABSOLUTE SEGMENTED NEUTROPHIL (Rattus norvegicus [2]; [9]): 1512 CELLS/uL | BASOPHIL (Rattus norvegicus [2]; [9]): 0% | ERYTHROCYTE COUNT (Rattus norvegicus [2]; [9]): 5.65 x10E6/uL | HEMATOCRIT (Rattus norvegicus [2]; [9]): 34.1% | HEMOGLOBIN (Rattus norvegicus [2]; [9]): 12.63 G/DL | LEUKOCYTE COUNT (Rattus norvegicus [2]; [9]): 12.93 x10E3/uL | LYMPHOCYTE (Rattus norvegicus [2]; [9]): 84.67% | MEAN CORPUSCULAR HEMOGLOBIN (Rattus norvegicus [2]; [9]): 22.43 pg | MEAN CORPUSCULAR HEMOGLOBIN CONCENTRATION (Rattus norvegicus [2]; [9]): 37.1 G/DL | MEAN CORPUSCULAR VOLUME (Rattus norvegicus [2]; [9]): 60.37 fL | MONOCYTE (Rattus norvegicus [2]; [9]): 3.33% | NEUTROPHIL (Rattus norvegicus [2]; [9]): 10.67% | NUCLEATED RED BLOOD CELLS (Rattus norvegicus [2]; [9]): 0 /100WBC | PLATELET COUNT (Rattus norvegicus [2]; [9]): 1117 x10E3/uL | ALANINE AMINOTRANSFERASE (Rattus norvegicus [2]; [10]): 52.67 u/L | ALBUMIN (Rattus norvegicus [2]; [10]): 4.3 G/DL | ALKALINE PHOSPHATASE (Rattus norvegicus [2]; [10]): 366 u/L | ASPARTATE AMINOTRANSFERASE (Rattus norvegicus [2]; [10]): 77.67 u/L | BLOOD UREA NITROGEN (Rattus norvegicus [2]; [10]): 13 mg/dL | CARBON DIOXIDE (Rattus norvegicus [2]; [10]): 26 mmol/L | CHOLESTEROL (Rattus norvegicus [2]; [10]): 82.67 mg/dL | CREATININE (Rattus norvegicus [2]; [10]): 0.16 mg/dL | LACTATE DEHYDROGENASE (Rattus norvegicus [2]; [10]): 175 u/L | LIPASE (Rattus norvegicus [2]; [10]): 8 u/L | PHOSPHORUS (Rattus norvegicus [2]; [10]): 12.07 mg/dL | POTASSIUM (Rattus norvegicus [2]; [10]): 6.17 MEQ/L | TOTAL BILIRUBIN (Rattus norvegicus [2]; [10]): 0.17 mg/dL | TOTAL PROTEIN (Rattus norvegicus [2]; [10]): 6.23 G/DL | URIC ACID (Rattus norvegicus [2]; [10]): 1.7 mg/dL
